This test concerns Platelet. Briefly: Tumor cell (Lewis Lung Carcinoma, 3LL) induced platelet aggregation (TCIPA). It counts as cell-based, human. Conditions: 3LL cells. As to the method:
Blood (45 ml) was drawn from the […] vein of healthy, fasted, aspirin free (at least two weeks) human volunteers into a plastic syringe containing 5 ml of 4.8% dextrose with 50 U/ml heparin buffered by 25 mM HEPES, pH 7.5. An 18 gauge needle was used to prevent hemolysis. The heparinized blood was gently mixed by inverting the syringe five times and then the blood was transfused into two 40 ml plastic centrifuge tubes and centrifuged for 10 min at 163×g. The resulting platelet rich plasma (PRP; the supernatant fraction) was decanted using an adjustable SMI pipette set at 6 ml. Platelet poor plasma (PPP) was prepared by centrifugation of PRP for 10 min at 1086×g. Platelet poor plasma was used to standardize the platelet concentration in PRP to 3×10^8 /ml. Platelet concentrations were determined using a Coulter Model ZBI cell counter.
Platelet aggregation was measured photometrically using a Sienco Model DP-247E dual channel aggregometer and recorded on a Sienco Model B-5000 dual channel recorder. Aliquots of PRP (250 microliters at 3×10^8 platelets/ml) were transferred into aggregometry cuvettes and stirred at a constant speed of 800 RPM at 37° C. Platelet aggregation studies were designed and run as individually controlled samples. BAY e 9736 was dissolved in either PEG-400 or […] (DMSO).
BAY e 9736 in PEG-400 alone was aliquoted into the cuvettes prior to the addition of the PRP. Immediately after the addition of the PRP, the cuvettes were placed into the aggregometer. After two minutes (to allow for the stabilization of the platelet preparation and mixing of the BAY e 9736), ADP or tumor cells were added in 20 microliter aliquots to induce platelet aggregation.
The calcium channel blocker nifedipine was tested for its ability to inhibit tumor cell induced platelet aggregation (TCIPA). Nifedipine (20 mg) was dissolved in one milliliter of abolute ethanol:PEG-400 (1:1), and then diluted 1:10 with the same ethanol:PEG-400 mixture. […]

As to `COC(=O)C1=C(C)NC(C)=C(C(=O)OC)C1c1ccccc1[N+](=O)[O-]` [nifedipine], the “effect on tumor cell induced platelet aggregation (in words)” value was “can inhibit TCIPA in a dose dependent fashion”. For the same compound, the inhibition (usually the share of the control response that was lost under treatment) at 15 µg/mL (Homo sapiens, 0.015 mg/ml, read-out: INHIBITION OF CONTROL TCIPA) amounted to 22%. The inhibition at 150 µg/mL (Homo sapiens, 0.15 mg/ml, read-out: INHIBITION OF CONTROL TCIPA) was found to be 42%.
